Source: the NIST ThermoML archive (doi:10.1007/s10765-009-0625-z)

What was measured:
[1] = Liquid, Constant-volume piezometry
[2] = xn = mol fraction of the nth substance listed; settings: Liquid

c1ccc2[nH]ccc2c1 [1H-indole]
specific volume [m3/kg], [1]
Settings | 323.15 K | 333.15 K | 343.15 K | 353.15 K
100 kPa | 0.0009295 | 0.000936 | 0.0009428 | 0.0009499
10000 kPa | – | 0.0009315 | 0.0009381 | 0.0009449
20000 kPa | – | 0.0009273 | 0.0009335 | 0.0009402
30000 kPa | – | 0.0009228 | 0.0009292 | 0.0009358
40000 kPa | – | 0.0009192 | 0.0009249 | 0.0009313
50000 kPa | – | 0.0009157 | 0.0009209 | 0.0009273
60000 kPa | – | – | 0.0009173 | 0.0009231
70000 kPa | – | – | 0.000914 | 0.0009195
80000 kPa | – | – | 0.0009103 | 0.0009158
90000 kPa | – | – | – | 0.0009123
100000 kPa | – | – | – | 0.0009091
110000 kPa | – | – | – | 0.0009059

c1ccc2[nH]ccc2c1 [1H-indole] + c1ccc(-c2ccccc2)cc1
specific volume [m3/kg], [2], 100 kPa
Settings | 303.15 K | 313.15 K | 323.15 K | 333.15 K | 343.15 K | 353.15 K | 363.15 K
x1 = 0.25 | – | – | 0.0009769 | 0.0009848 | 0.0009924 | 0.001 | 0.001009
x1 = 0.5 | 0.0009477 | 0.000955 | 0.0009624 | 0.0009698 | 0.000977 | 0.0009848 | 0.0009924
x1 = 0.75 | 0.0009328 | 0.0009393 | 0.0009462 | 0.0009538 | 0.0009599 | 0.0009675 | 0.0009747
x1 = 1 | – | – | 0.0009295 | 0.000936 | 0.0009428 | 0.0009499 | –

specific volume [m3/kg], [2], 333.15 K, Constant-volume piezometry
Settings | x1 = 0.25 | x1 = 0.5 | x1 = 0.75 | x1 = 1
100 kPa | 0.0009848 | 0.0009698 | 0.0009538 | 0.000936
10000 kPa | 0.0009792 | 0.0009648 | 0.0009488 | 0.0009315
20000 kPa | 0.0009737 | 0.0009601 | 0.0009442 | 0.0009273
30000 kPa | – | 0.0009553 | 0.0009399 | 0.0009228
40000 kPa | – | 0.0009507 | 0.0009356 | 0.0009192
50000 kPa | – | 0.0009464 | 0.0009316 | 0.0009157
60000 kPa | – | 0.0009423 | 0.0009278 | –
70000 kPa | – | 0.0009384 | 0.0009241 | –
80000 kPa | – | 0.0009347 | 0.0009205 | –
90000 kPa | – | – | 0.0009171 | –
100000 kPa | – | – | 0.0009139 | –
110000 kPa | – | – | 0.0009108 | –
120000 kPa | – | – | 0.0009077 | –
130000 kPa | – | – | 0.0009047 | –
140000 kPa | – | – | 0.000902 | –
150000 kPa | – | – | 0.0008991 | –
160000 kPa | – | – | 0.0008965 | –
170000 kPa | – | – | 0.0008939 | –

Cc1ccc2ccccc2c1 [2-methylnaphthalene]
[1]
Settings | specific volume [m3/kg]
303.15 K, 100 kPa | 0.001001
313.15 K, 100 kPa | 0.001009
323.15 K, 100 kPa | 0.001017
333.14 K, 100 kPa | 0.001025
333.15 K, 100 kPa | 0.001025
333.15 K, 10000 kPa | 0.001018
333.15 K, 20000 kPa | 0.001012
333.15 K, 30000 kPa | 0.001007
333.15 K, 40000 kPa | 0.001001
333.15 K, 50000 kPa | 0.0009961
333.15 K, 60000 kPa | 0.0009915
333.15 K, 70000 kPa | 0.0009868
333.15 K, 80000 kPa | 0.0009826
333.15 K, 90000 kPa | 0.0009784
333.15 K, 100000 kPa | 0.0009749
343.15 K, 100 kPa | 0.001033
343.15 K, 10000 kPa | 0.001026
343.15 K, 20000 kPa | 0.00102
343.15 K, 30000 kPa | 0.001014
343.15 K, 40000 kPa | 0.001008
343.15 K, 50000 kPa | 0.001003
343.15 K, 60000 kPa | 0.0009977
343.15 K, 70000 kPa | 0.0009932
343.15 K, 80000 kPa | 0.0009885
343.15 K, 90000 kPa | 0.0009843
343.15 K, 100000 kPa | 0.0009802
343.15 K, 110000 kPa | 0.0009764
343.15 K, 120000 kPa | 0.0009725
343.15 K, 130000 kPa | 0.0009689
343.15 K, 140000 kPa | 0.0009655
353.15 K, 100 kPa | 0.001041

Cc1ccc2ccccc2c1 [2-methylnaphthalene] + c1ccc2[nH]ccc2c1
[2], 100 kPa, x2 = 0
Settings | specific volume [m3/kg]
303.15 K | 0.001001
313.15 K | 0.001009
323.15 K | 0.001017
333.15 K | 0.001025
343.15 K | 0.001033
353.15 K | 0.001041

[2], 333.15 K, Constant-volume piezometry, x2 = 0
Settings | specific volume [m3/kg]
100 kPa | 0.001025
10000 kPa | 0.001018
20000 kPa | 0.001012
30000 kPa | 0.001007
40000 kPa | 0.001001
50000 kPa | 0.0009961
60000 kPa | 0.0009915
70000 kPa | 0.0009868
80000 kPa | 0.0009826
90000 kPa | 0.0009784
100000 kPa | 0.0009749

c1ccccc1 [benzene]
Settings | specific volume [m3/kg]
[1], 293.15 K, 101.33 kPa | 0.001138

c1ccc(-c2ccccc2)cc1 [biphenyl]
[1]
Settings | specific volume [m3/kg]
333.15 K, 100 kPa | 0.0009985
343.15 K, 100 kPa | 0.001007
353.15 K, 100 kPa | 0.001015
353.15 K, 10000 kPa | 0.001008
353.15 K, 20000 kPa | 0.001002
353.15 K, 30000 kPa | 0.0009956
363.15 K, 100 kPa | 0.001024
363.16 K, 100 kPa | 0.001024
363.16 K, 10000 kPa | 0.001016
363.16 K, 20000 kPa | 0.00101
363.16 K, 30000 kPa | 0.001003
363.16 K, 40000 kPa | 0.000997
363.16 K, 50000 kPa | 0.0009917
363.16 K, 60000 kPa | 0.0009864
363.16 K, 70000 kPa | 0.0009815

c1ccc(-c2ccccc2)cc1 [biphenyl] + c1ccc2[nH]ccc2c1
Settings | specific volume [m3/kg]
[2], 333.15 K, 100 kPa, Constant-volume piezometry, x2 = 0 | 0.0009985

[2], 100 kPa, x2 = 0
Settings | specific volume [m3/kg]
333.15 K | 0.0009985
343.15 K | 0.001007
353.15 K | 0.001015
363.15 K | 0.001024
